Patent US20220146526A1, “METHOD FOR EVALUATING SAMPLE, ANALYSIS METHOD, METHOD FOR DETECTING DEGRADED SAMPLE, MARKER FOR DETECTING DEGRADED BLOOD PLASMA SAMPLE, AND MARKER FOR DETECTING DEGRADED SERUM SAMPLE” (SHIMADZU CORPORATION, priority 2019, published 2022)

Legend:
Format in all cases: physicochemical, human
[1] = GC/MS of blood plasma sample: number of times of freezing and thawing (Table C); details: for Rate of increase or decrease: detection intensity relative to 1 at 2 times; for Increase or decrease: detection intensity; for Rate of increase or decrease (second value, decrease) / Rate of increase or decrease (first value, increase): different from individual to individual, relative to 1 at 2 times; for Rate of increase or decrease (second value, decrease): individuals with decrease; for Rate of increase or decrease (first value, increase): individuals with increase
Method: (§1) At room temperature, 5 mL of blood from a healthy subject was taken into a blood-collecting vessel containing EDTA, and the blood-collecting vessel was inverted for mixing, then cooled, and allowed to stand at 4° C. Here, in order to investigate how the detection intensity of molecules contained in the sample was affected in a case where the time to cooling was set to 5 minutes or more as compared to that in a case where the time to cooling was set to 1 minute or less, preparations were performed under both the former condition and the latter condition. After standing, the blood sample was subjected to centrifugation under a condition of 4° C., 3000 rpm, and 15 minutes. […] After centrifugation, the blood-collecting vessel was left to stand at room temperature for 30 minutes, and the blood plasma was isolated during this 30 minutes. The obtained blood plasma sample was frozen and stored. Here, in order to investigate how the detection intensity of molecules contained in the sample was affected in cases where freezing and thawing was performed 4 times, 6 times, and 10 times after freezing as compared to that in a case where freezing and thawing was performed 2 times after freezing, freezing and thawing was performed under the respective conditions of 2, 4, 6, and 10 times.
(§2) Frozen blood plasma samples and serum samples were subjected to GC/MS or LC/MS. In GC/MS, the blood plasma samples and serum samples were subjected to methoxymation and trimethylsilylation and then introduced to GC-MS.
(§3) GC/MS was conducted using GCMS·TQ8040 (Shimadzu Corporation) that was a GC·MS equipped with AOC·20i (Shimadzu Corporation) as an autosampler.
(§4) Column: BPX5 (inner diameter of 0.25 mm, length of 30 m, and film thickness of 0.25 μm) (SGE)
(§5) Column temperature: maintained at 60° C. for 2 minutes, then raised at 15° C./min, and maintained at 330° C. for 3 minutes.
(§6) Inlet temperature: 250° C.
(§7) Carrier gas control mode: constant linear velocity of 39.0 cm/sec
(§8) Sample introduction method: split (split ratio of 30:1) Injection volume: 1 μL
(§9) Ionization method: electron ionization
(§10) Ionization current: 60 μA
(§11) Interface temperature: 280° C.
(§12) Ion source temperature: 200° C.
(§13) Mode: multiple reaction monitoring (MRM)
The rate of increase or decrease in Table C is the value of detection intensity relative to 1 that is the detection intensity in a case where the number of times of freezing and thawing is set to 2 times.

[2] = GC/MS of serum sample: time from blood collection to centrifugation (Table G); details: blood collection to centrifugation; for Rate of increase or decrease: detection intensity relative to 1 at 15 minutes; for Increase or decrease: detection intensity
In short: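 Values express detection intensity as a ratio to the sample centrifuged 15 minutes after blood collection (taken as 1). Serum was derivatized by methoxymation and trimethylsilylation, then analysed by electron-ionization GC/MS using multiple reaction monitoring on a BPX5 column ramped from 60 to 330° C.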

[3] = GC/MS of blood plasma sample: time from blood collection to centrifugation (Table A); details: for Increase or decrease: detection intensity, after 4 hours vs 15 minutes; for Increase or decrease / Rate of increase or decrease: blood collection to centrifugation; for Rate of increase or decrease: detection intensity relative to 1 at 15 minutes
Method: as §1, §2, §3, §4, §5, §6, §7, §8, §9, §10, §11, §12, §13
The rate of increase or decrease in Table A is the value of detection intensity relative to 1 that is the detection intensity in a case where the time from blood collection to centrifugation is set to 15 minutes.

[4] = LC/MS of serum sample: number of times of freezing and thawing (Table M); parameters: key to Rate of increase or decrease: detection intensity relative to 1 at 2 freeze-thaw cycles
Method: (§14) After standing, the blood sample was subjected to centrifugation under a condition of room temperature, 3500 rpm, and 5 minutes. […] After centrifugation, the blood-collecting vessel was left to stand at room temperature, and the serum was isolated during this time. Here, in order to investigate how the detection intensity of molecules contained in the sample was affected in cases where the time during which the blood-collecting vessel was left at room temperature was set to 1 hour and 6 hours as compared to that in a case where the time was set to 30 minutes, preparations were performed under the respective conditions of 30 minutes, 1 hour, and 6 hours. The obtained serum sample was frozen and stored. Here, in order to investigate how the detection intensity of molecules contained in the sample was affected in cases where freezing and thawing was performed 4 times, 6 times, and 10 times after freezing as compared to that in a case where freezing and thawing was performed 2 times after freezing, freezing and thawing was performed under the respective conditions of 2, 4, 6, and 10 times.
as §2
(§15) Analysis column: Discovery HS F5-3 (inner diameter of 2.1 mm, length of 150 mm, film thickness of 3 μm) (Sigma-Aldrich)
(§16) Column temperature: 40° C.
(§17) (A) 0.1% formic acid (dissolved in water)
(§18) (B) 0.1% formic acid (dissolved in acetonitrile)
(§19) Flow velocity: 0.25 mL/min
(§20) Ionization method: electrospray
(§21) Temperature: • Desolvation Line (DL) temperature: 250° C. • Heat block temperature: 400° C. • Interface temperature: 300° C.
(§22) Gas flow rate: • Nebulizer gas flow rate: 3.0 L/min • Drying gas flow rate: 10.0 L/min • Heating gas flow rate: 10.0 L/min
as §13
The rate of increase or decrease in Table M is the value of detection intensity relative to 1 that is the detection intensity in a case where the number of times of freezing and thawing is set to 2 times.

[5] = LC/MS of serum sample: time from blood collection to centrifugation (Table J)
Method: as §14, §2, §15, §16, §17, §18, §19, §20, §21, §22, §13
The rate of increase or decrease in Table J is the value of detection intensity relative to 1 that is the detection intensity in a case where the time from blood collection to centrifugation is set to 15 minutes.

[6] = GC/MS of serum sample: number of times of freezing and thawing (Table I); parameters: key to Rate of increase or decrease / Rate of increase or decrease (first value, increase): detection intensity relative to 2 freeze-thaw cycles = 1; details: serum, GC/MS; for Increase or decrease: detection intensity
In short: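 Detection intensities are ratios to the value after two freeze–thaw cycles, which is set as 1, compared against 4, 6 and 10 cycles. Analysis used methoxymation and trimethylsilylation derivatization, then GC/MS with EI ionization and multiple reaction monitoring on a BPX5 column. Serum came from blood held at room temperature and spun at 3500 rpm for 5 min.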

[7] = GC/MS of serum sample: time from centrifugation to isolation (Table H); parameters: key to Rate of increase or decrease / Rate of increase or decrease (first value, increase): detection intensity relative to 1 at 30 min centrifugation-to-isolation; details: for Rate of increase or decrease: detection intensity relative to 1 at 30 minutes, after 1 hour; for Increase or decrease: detection intensity, after 1 hour vs 30 minutes
In short: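 Values are GC/MS (EI, MRM) detection intensities of methoxymated/trimethylsilylated serum, normalised to 1 for the 30-min sample. Serum was isolated 30 min, 1 h or 6 h after room-temperature centrifugation (3500 rpm, 5 min) of blood.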

[8] = freezing and thawing 6 times vs 2 times
[9] = freezing and thawing 10 times vs 2 times

SMILES	Increase or decrease [1, 8]	Rate of increase or decrease ([2]; after 4 hours)	Increase or decrease ([2]; after 4 hours vs 15 minutes)	Increase or decrease [3]	Rate of increase or decrease [7]	Increase or decrease [7]	Rate of increase or decrease ([3]; after 4 hours)	Rate of increase or decrease (second value, decrease) ([1]; freezing and thawing 6 times)	Rate of increase or decrease (first value, increase) ([1]; freezing and thawing 6 times)	further results
O=C[C@H](O)[C@@H](O)[C@H](O)CO [Xylose]	Decrease	1.47	Increase	Different from individual						Rate of increase or decrease ([1]; freezing and thawing 6 times): 0.68; Rate of increase or decrease ([2]; after 8 hours): 0.68; Increase or decrease ([2]; after 8 hours vs 15 minutes): Decrease; Rate of increase or decrease (second value, decrease) ([3]; different from individual to individual, individuals with decrease, relative to 1 at 15 minutes, collection to centrifugation, after 4 hours): 0.69; Rate of increase or decrease (first value, increase) ([3]; different from individual to individual, individuals with increase, relative to 1 at 15 minutes, collection to centrifugation, after 4 hours): 1.68
N[C@@H](CO)C(=O)O [Serine, serine]										Rate of increase or decrease ([4]; 6 times of freezing and thawing, detection intensity relative to 1 at 2 times): 0.66; Number of times when compound is affected ([4]; serum sample, LC/MS, detection intensity changed by 30% or more vs 2 times of freezing and thawing): 6 times; Increase or decrease ([4]; serum sample, LC/MS, detection intensity vs 2 times of freezing and thawing): Decrease; Rate of increase or decrease ([5]; after 6 hours from blood collection to centrifugation, detection intensity relative to 1 at 15 minutes): 1.44; Increase or decrease ([5]; serum sample, LC/MS, detection intensity vs 15 minutes from blood collection to centrifugation): Increase; Time when compound is affected ([5]; serum sample, LC/MS, time from blood collection to centrifugation, detection intensity changed by 30% or more vs 15 minutes): After 6 hours
CCCCCCCCCCCCCCCCO [1-Hexadecanol (cetanol), 1-Hexadecanol]				Decrease	1.36	Increase	0.60			Rate of increase or decrease ([1]; freezing and thawing 10 times): 1.88; Increase or decrease [1, 9]: Increase; Rate of increase or decrease ([2]; after 12 hours): 1.38; Increase or decrease ([2]; after 12 hours vs 15 minutes): Increase; Increase or decrease [6, 9]: Different from individual; Rate of increase or decrease (second value, decrease) ([6]; different from individual to individual, individuals with decrease, relative to 1 at 2 times, freezing and thawing 10 times): 0.70; Rate of increase or decrease (first value, increase) ([6]; different from individual to individual, individuals with increase, relative to 1 at 2 times, freezing and thawing 10 times): 1.34
O=C1O[C@H]([C@@H](O)CO)C(O)=C1O [Ascorbic acid]		0.62	Decrease	Increase			1.77			Rate of increase or decrease ([1]; freezing and thawing 4 times): 1.41; Increase or decrease ([1]; freezing and thawing 4 times vs 2 times): Increase
Nc1cc[nH]c(=O)n1 [Cytosine]	Different from individual			Increase			1.50	0.62	1.93	
CCCCCCCCCCCCCCCCCCO [Octadecanol]	Different from individual		Increase	Increase	2.08	Increase	1.62	0.68	1.63	Rate of increase or decrease ([6]; detection intensity relative to 1 at 2 times, freezing and thawing 6 times): 1.64; Increase or decrease [6, 8]: Increase
